Results published in patent US4338330A, “Benzimidazole derivatives, their use, and compositions containing these derivatives” (Continental Pharma, priority 1979, dated 1982).
“Also recorded” adds a separate entry of the source. Counter-ions that a name gives are not always drawn. Like-named read-outs stand apart in the source and are kept apart here.

Tests used:
[1] = system: β1 cardiac receptors versus β2 tracheal receptors; assay: Cardioselectivity (auricles versus trachea); design: species or system guinea pig; settings: for times more active on β cardiac receptors than on β2 receptors: from difference of pA2 on auricles and trachea
Method: (§1) The effect on β1 cardiac receptors is measured by inhibition of the chronotropic response to noradrenaline of guinea pig auricles and of the inotrope response to isoproterenol of guinea pig left auricles which were electrically stimulated. The cardioselectivity is appreciated by measuring the antagonist effect at the level of β2 receptors of the guinea pig trachea. To this end, a tracheal chain is contracted by a maximum concentration of histamine and inhibition of relaxation by isoproterenol is measured. The values calculated for cardioselectivity are obtained by considering the difference between pA2 values of the chronotrope response and the relaxation on the one hand (1st column) and of the inotrope response and relaxation on the other hand (2nd column). For these various experiences, pA2 is calculated according to the Van Rossum method (Arch. Inern. Pharmacodyn., 143, 299-330, 1963).

β1 cardiac receptors [2] = target: T1, β1 cardiac receptors (Cavia porcellus, UniProt H0W3H1); assay: β-lytic activity: inhibition of inotrope response to isoproterenol of electrically stimulated left auricles (pA2); design: species or system guinea pig
T1 construct: chronotropic response to noradrenaline of guinea pig auricles; from tissue; host or cells: guinea pig auricles (chronotropic response); electrically stimulated guinea pig left auricles (inotropic response)
T1 sequence (H0W3H1 1-470): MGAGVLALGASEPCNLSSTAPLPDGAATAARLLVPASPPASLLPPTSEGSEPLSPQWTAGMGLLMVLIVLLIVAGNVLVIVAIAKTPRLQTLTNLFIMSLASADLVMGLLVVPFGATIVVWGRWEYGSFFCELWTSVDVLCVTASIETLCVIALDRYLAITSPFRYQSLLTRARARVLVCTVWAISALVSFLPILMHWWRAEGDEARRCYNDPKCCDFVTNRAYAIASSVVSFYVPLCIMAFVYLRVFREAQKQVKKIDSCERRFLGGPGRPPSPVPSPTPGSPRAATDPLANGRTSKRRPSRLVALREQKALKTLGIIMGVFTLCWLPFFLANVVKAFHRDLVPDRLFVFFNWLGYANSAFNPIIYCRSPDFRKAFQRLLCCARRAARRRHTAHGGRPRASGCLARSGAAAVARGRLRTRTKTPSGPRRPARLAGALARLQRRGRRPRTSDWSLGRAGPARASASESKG
Method: as §1, with “column).” for “column). For these various experiences, pA2 is calculated according to the Van Rossum method (Arch. Inern. Pharmacodyn., 143, 299-330, 1963).”

β1 cardiac receptors [3] = target: T1, β1 cardiac receptors; assay: β-lytic activity: inhibition of chronotropic response to noradrenaline of auricles (pA2); design: species or system guinea pig
Method: as §1, with “column).” for “column). For these various experiences, pA2 is calculated according to the Van Rossum method (Arch. Inern. Pharmacodyn., 143, 299-330, 1963).”

[4] = system: isolated guinea pig auricles; assay: Chronotrope effect of the substance on isolated auricles; settings: 10^-6 M, 20 minutes, Tyrode, 29° C.
Method: The β-lytic effect was searched on the chronotropic response to noradrenaline of isolated guinea pig auricles. Auricles were incubated for 20 minutes in a Tyrode solution at 29° C. in the presence of the substance to be tested at the concentration of 10^-6 M. A positive (+) or negative (-) chronotrope effect of the substance was noted using the following scores: […]

[5] = Peripheral vasodilator activity, anesthetized dog, femoral arterial circulation; type: in vivo; settings: 30 μg/kg injected directly
Method: The peripheral vasodilator activity was measured on anesthetized dog at the level of femoral arterial circulation. To this end, the femoral artery the collaterals of which have been ligated is perfused at constant rate with blood taken from aorta. The perfusion pressure measured at the level of the femoral artery thus varies as a function of the resistance of the perfused area. The tested products and the corresponding solvents are directly injected at the dose of 30 μg/kg. The cardiac output being maintained constant, a vasodilation is thus measured by a decrease of the perfusion pressure. The latter is scored in comparison with the action of papaverine, considered as a reference and injected one time by group of 4 products. When interesting, the products are tested with other doses under the same conditions.
The vasodilator activity is appreciated as follows: […]

[6] = Antihypertensive activity, oral, unanesthetized spontaneously hypertensive rats; type: in vivo; settings: 60 mg/kg oral; for Antihypertensive activity (score): spontaneously hypertensive rats; for Antihypertensive activity (index): systolic pressure difference (cmHg) every 30 min multiplied by time coefficient 1 to 6
Method: […] Only rats having a systolic pressure of 180 to 220 mm Hg are used. Two rats are used by product. The treatments are administered without the knowledge of the person making the measure.
The antihypertensive effects were recorded according to a score followed by an index. The scoring system is as follows.
The index is calculated by multiplying the systolic pressure difference (cmHg) measured every 30 minutes after the treatment, by a coefficient of 1 to 6 corresponding to times of 30 to 180 minutes.

[7] = LD50 in mice, oral (Lichtfield and Wilcoxon method); type: in vivo
Method: LD50 were determined according to the Lichtfield and Wilcoxon method (J. Pharmacol. Exp. Ther. 96, 99, 1949) and expressed in mg/kg. The products were administered to mice orally.

[8] = system: guinea pig ileum contractions induced by histamine; assay: Antispasmodic activity against ileum contractions induced by histamine
Method: (§2) The antispasmodic activity of the studied substances was examined against guinea pig ileum contractions induced by histamine and acetylcholine.
(§3) These experiences allow to make it obvious an antihistaminic, anticholinergic or musculotrope activity. The response to the contracting agent (sub-maximum concentration) is obtained every 5 minutes before and after injection of increasing concentrations of tested products (10^-7 M to 10^-4 M). The inhibition percentage under the influence of tested products is calculated and the theoretical concentration giving 50% of inhibition is graphically determined for each experience. These values are expressed in -log CI50 (M).

[9] = system: chronotropic response to noradrenaline of isolated guinea pig auricles; assay: β-lytic effect on the chronotropic response to noradrenaline of isolated auricles
Method: The β-lytic effect was searched on the chronotropic response to noradrenaline of isolated guinea pig auricles. Auricles were incubated for 20 minutes in a Tyrode solution at 29° C. in the presence of the substance to be tested at the concentration of 10^-6 M. A positive (+) or negative (-) chronotrope effect of the substance was noted using the following scores:
Then, the chronotrope effect of cumulative increasing concentrations of noradrenaline was recorded. The pD2 (-log CE50) value was calculated. A score of β-lytic activity of the substance was given as follows:
If the score at concentration of 10^-6 M was 3 or 4, the effect of the substance was examined at concentration of 10^-7 M and a score was recorded according to the same procedure.

[10] = system: guinea pig ileum contractions induced by acetylcholine; assay: Antispasmodic activity against ileum contractions induced by acetylcholine
Method: as §2, §3

[11] = target: T2, β2 receptors of the guinea pig trachea (Cavia porcellus, UniProt Q8K4Z4); assay: Antagonist effect on relaxation of trachea by isoproterenol (pA2); settings: histamine-contracted tracheal chain, read-out: β-lytic activity, pA2 trachea relaxation (converted)
T2 construct: β2 receptors of the guinea pig trachea; from tissue; host or cells: guinea pig tracheal chain contracted by histamine
T2 sequence (Q8K4Z4 whole entry): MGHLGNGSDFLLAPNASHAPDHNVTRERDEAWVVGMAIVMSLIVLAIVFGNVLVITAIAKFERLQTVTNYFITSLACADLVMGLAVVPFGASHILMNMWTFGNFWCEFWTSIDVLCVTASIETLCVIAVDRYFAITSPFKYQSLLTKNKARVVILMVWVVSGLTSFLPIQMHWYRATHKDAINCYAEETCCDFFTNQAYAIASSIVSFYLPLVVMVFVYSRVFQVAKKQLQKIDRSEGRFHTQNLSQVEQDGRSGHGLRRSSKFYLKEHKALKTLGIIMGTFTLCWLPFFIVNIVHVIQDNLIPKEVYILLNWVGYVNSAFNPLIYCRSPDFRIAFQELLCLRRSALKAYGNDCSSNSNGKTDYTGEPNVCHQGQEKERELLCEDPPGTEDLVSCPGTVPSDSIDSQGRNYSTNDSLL
Method: as §1, with “column).” for “column). For these various experiences, pA2 is calculated according to the Van Rossum method (Arch. Inern. Pharmacodyn., 143, 299-330, 1963).”

[12] = mouse, in vivo, po, read-out: LD50

| Compound | times more active on β cardiac receptors than on β2 receptors [1] | Kb (β1 cardiac receptors [2]) | Kb (β1 cardiac receptors [3]) | Chronotrope effect (score) [4] | Peripheral vasodilator activity [5] | Antihypertensive activity (score) [6] | Antihypertensive activity (index) [6] | LD50 [7, 12] | Antispasmodic activity, Hist. (-log CI50 (M)) [8] | β-lytic effect (score) ([9]; 10^-6 M) | Antispasmodic activity, Ac. Chol. (-log CI50 (M)) [10] | Kb [11] | Cardioselectivity ([1]; Table III, from pA2 auricles and trachea) | Cardioselectivity (in words) ([1]; guinea pig auricles vs trachea) | Kb (β1 cardiac receptors [2]; isoproterenol, electrically stimulated left auricles, read-out: β-lytic activity, pA2 auricles inotrope response (converted)) | Activity on β cardiac receptors (in words) (β1 cardiac receptors [3]) | Kb (β1 cardiac receptors [3]; noradrenaline, read-out: β-lytic activity, pA2 auricles chronotrope response (converted)) | β-lytic effect (score) ([9]; 10^-7 M) | LD50 [7] |
| --- | --- | --- | --- | --- | --- | --- | --- | --- | --- | --- | --- | --- | --- | --- | --- | --- | --- | --- | --- |
| CC(C)NCC(O)COc1ccc(CC(N)=O)cc1 (centres unmarked) [Atenolol, reference compound] | 50 times | 129 nM | 44.7 nM | – | – | – | – | – | – | – | – | – | – | – | – | – | – | – | – |
| OC(CNCCOc1ccccc1)COc1ccc(-c2nc3ccccc3[nH]2)cc1 (centres unmarked) [Compound 3, 2-{4-[3-(2-phenoxyethylamino)-2-hydroxypropoxy]phenyl}benzimidazole] | – | – | – | 0 (if the frequency modification was comprised between +6 and -6) | active | +++ (reduction of 30 to 50 mm Hg) | 50 | > 3000 mg/kg | 6.52 -log CI50 (M) | 2 (if 6.40≥pD2 ≥6.01) | 6.43 -log CI50 (M) | – | – | – | – | – | – | – | – |
| COc1ccc(CCNCC(O)COc2ccc(-c3nc4ccccc4[nH]3)cc2)cc1OC (centres unmarked) [Compound 5, 2-[[4-{3-[2-(3,4-dimethoxyphenyl)ethylamino]-2-hydroxypropoxy}phenyl]]benzimidazole] | more than 5600 times | – | – | 0 (if the frequency modification was comprised between +6 and -6) | – | +++ (reduction of 30 to 50 mm Hg) | 34 | > 3000 mg/kg | 5.80 -log CI50 (M) | 3 (if 6.00≥pD2 ≥5.51) | 5.69 -log CI50 (M) | > 100000 nM | > 1.91 | important cardioselectivity; also recorded: much higher than that of metopropol and atenolol | 39.8 nM | active β-agents on β cardiac receptors | 21.4 nM | 2 (if 6.40≥pD2 ≥6.01) | – |
| OC(CNCCCCc1ccccc1)COc1ccc(-c2nc3ccccc3[nH]2)cc1 (centres unmarked) [Compound 6] | – | – | – | -1 | active | 0 (reduction <10 mm Hg) | – | > 3000 mg/kg | 6.89 -log CI50 (M) | 0 (if pD2 ≥6.81) | 7.12 -log CI50 (M) | – | – | – | – | – | – | – | – |
| CC(CCc1ccccc1)NCC(O)COc1ccc(-c2nc3ccccc3[nH]2)cc1 (centres unmarked) [Compound 7] | – | – | – | 0 (if the frequency modification was comprised between +6 and -6) | active | + (reduction of 10 to 20 mm Hg) | 18 | > 3000 mg/kg | 6.25 -log CI50 (M) | 0 (if pD2 ≥6.81) | 6.23 -log CI50 (M) | – | – | – | – | – | – | – | – |
| CC(C)NCC(O)COc1ccc(-c2nc3ccccc3[nH]2)cc1 (centres unmarked) [Compound 12, 2-[4-(3-isopropylamino-2-hydroxypropoxy)phenyl]benzimidazole] | – | – | – | 0 (if the frequency modification was comprised between +6 and -6) | – | ++++ (reduction>50 mm Hg) | 160 | – | 4.60 -log CI50 (M) | 4 (if pD2 ≤5.50) | 4.75 -log CI50 (M) | – | – | – | – | – | – | 2 (if 6.40≥pD2 ≥6.01) | 1950 mg/kg |
| CC(CCc1ccc2c(c1)OCO2)NCC(O)COc1ccc(-c2nc3ccccc3[nH]2)cc1 (centres unmarked) [Compound 13] | – | – | – | 0 (if the frequency modification was comprised between +6 and -6) | – | 0 (reduction <10 mm Hg) | – | > 1000 mg/kg | 6.46 -log CI50 (M) | 2 (if 6.40≥pD2 ≥6.01) | 6.15 -log CI50 (M) | – | – | – | – | – | – | – | – |
| Cc1ccc2[nH]c(-c3ccc(OCC(O)CNC(C)C)cc3)nc2c1 (centres unmarked) [Compound 14, 2-[4-(3-isopropylamino-2-hydroxypropoxy)phenyl]-5(6)-methylbenzimidazole (hydrochloride)] | – | – | – | 1 | – | ++++ (reduction>50 mm Hg) | 83 | 1450 mg/kg | 4.85 -log CI50 (M) | 4 (if pD2 ≤5.50) | 5.10 -log CI50 (M) | – | – | – | – | – | – | 2 (if 6.40≥pD2 ≥6.01) | – |
| Cc1cc2nc(-c3ccc(OCC(O)CNC(C)C)cc3)[nH]c2cc1C (centres unmarked) [Compound 15] | – | – | – | 0 (if the frequency modification was comprised between +6 and -6) | – | ++++ (reduction>50 mm Hg) | 110 | 1450 mg/kg | 5.45 -log CI50 (M) | 3 (if 6.00≥pD2 ≥5.51) | 5.38 -log CI50 (M) | – | – | – | – | – | – | 1 (if 6.80≥pD2 ≥6.41) | – |
| CC(C)NCC(O)COc1ccc(-c2nc3cc(Cl)ccc3[nH]2)cc1 (centres unmarked) [Compound 16] | – | – | – | 0 (if the frequency modification was comprised between +6 and -6) | – | ++++ (reduction>50 mm Hg) | 90 | 1100 mg/kg | 5.58 -log CI50 (M) | 3 (if 6.00≥pD2 ≥5.51) | 5.25 -log CI50 (M) | – | – | – | – | – | – | 1 (if 6.80≥pD2 ≥6.41) | – |
| OC(CNCCCCSc1ccccc1)COc1ccc(-c2nc3ccccc3[nH]2)cc1 (centres unmarked) [Compound 23] | – | – | – | 0 (if the frequency modification was comprised between +6 and -6) | active | 0 (reduction <10 mm Hg) | – | – | 6,05 -log CI50 (M) | 0 (if pD2 ≥6.81) | 5,74 -log CI50 (M) | – | – | – | – | – | – | – | – |
| COCCc1ccc(OCC(O)CNC(C)C)cc1 (centres unmarked) [Metroprolol, reference compound] | 65 times | – | – | – | – | – | – | – | – | – | – | – | – | – | – | – | – | – | – |
